One substance from US7422694B2, “Process for the microbiological decontamination of water by means of photosensitive agents” (priority 2001, dated 2008) can be followed below.

In test [1] the test system is Staphylococcus aureus. In words: Decrease in Staphylococcus aureus viability on exposure to visible light in the presence of hematoporphyrin (FIG. 8). The test is classed as cell-based. Conditions: hematoporphyrin at 0.1 pg/ml and 1 μg/ml, cells in stationary or logarithmic growth phase. The protocol:
FIG. 8 is a plot where the experimental results relating to the decrease in Staphylococcus aureus viability on exposure to visible light in the presence of hematoporphyrin at 0.1 pg/ml (circles) and 1 μg/ml (squares) concentrations were plotted. Bacterial cells were either in the stationary (closed symbols) or in the logarithmic (open symbols) growth phase.

Test [2] deals with wild and antibiotics-resistant bacterial strains (e.g. Streptococcus and Staphylococcus strains), yeasts (e.g. Candida strains). In words: Phototoxicity of hematoporphyrin towards bacterial strains and yeasts. The test is classed as cell-based.

As for hematoporphyrin, the “photosensitised inactivation of Staphylococcus aureus” value in test [1] was “effectively this porphyrin photosensitises the inactivation”. Also, the phototoxicity entry in test [2] is listed as “exhibited phototoxicity”.
